Test results published in PMC9090415, “Discovery of small molecule inhibitors of Plasmodium falciparum apicoplast DNA polymerase” (Journal of Enzyme Inhibition and Medicinal Chemistry, 2022).

Biological target: P. falciparum apicoplast DNA polymerase (Pf-apPOL) (Plasmodium falciparum, UniProt Q8ILY1)
Assay: Fluorescence-based high-throughput DNA polymerase assay (molecular beacon), primary screen and dose-response
Assay type: biochemical
Conditions: for DNA Pol: 90 min, 10 µM; for IC50: supplemental file 2, sheet IC50 nontoxic compounds, Pf-apPOL
Method in brief: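 Single-point screening used 10 µM compound with 20 nM polymerase, 20 nM hairpin substrate and 6 µM dNTPs for 90 min at 25 °C. Confirmatory titrations (2.5–80 µM) followed fluorescence at three times, and IC50 was derived from a fit including a cooperativity term n.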

[1] = 'DNA Pol' of the 186 hits list (screen value)
[2] = primary screen value, "DNA Pol"

Chain of P. falciparum apicoplast DNA polymerase (Pf-apPOL) (Q8ILY1 entry or part of it): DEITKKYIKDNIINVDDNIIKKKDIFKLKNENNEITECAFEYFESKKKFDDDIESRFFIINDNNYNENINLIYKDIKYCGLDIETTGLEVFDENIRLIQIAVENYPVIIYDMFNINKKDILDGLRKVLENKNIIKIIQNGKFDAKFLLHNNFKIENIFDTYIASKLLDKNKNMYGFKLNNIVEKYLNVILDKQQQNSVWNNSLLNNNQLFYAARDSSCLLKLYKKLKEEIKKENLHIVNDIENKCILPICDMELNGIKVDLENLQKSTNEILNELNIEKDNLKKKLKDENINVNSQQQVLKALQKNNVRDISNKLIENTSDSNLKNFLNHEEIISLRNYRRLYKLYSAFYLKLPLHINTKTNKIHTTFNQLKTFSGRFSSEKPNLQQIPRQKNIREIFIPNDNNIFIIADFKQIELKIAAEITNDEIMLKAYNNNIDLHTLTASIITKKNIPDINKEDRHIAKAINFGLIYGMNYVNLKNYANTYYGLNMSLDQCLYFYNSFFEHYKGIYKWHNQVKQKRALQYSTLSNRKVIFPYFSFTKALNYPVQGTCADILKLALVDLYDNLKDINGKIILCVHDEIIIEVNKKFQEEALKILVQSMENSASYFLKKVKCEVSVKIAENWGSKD

## NC(=O)c1cc[n+](CC2=C(C(=O)[O-])N3C(=O)[C@@H](NC(=O)[C@@H](c4ccccc4)S(=O)(=O)[O-])[C@H]3SC2)cc1.[Na+] [Molecule 9, O=C([C@H](S(=O)(=O)[O-])c1ccccc1)N[C@@H]1C(=O)N2[C@@H]1SCC(=C2C(=O)[O-])C[n+]1ccc(cc1)C(=O)N.[Na+]]
'DNA Pol' of the 186 hits list (primary screen result), unit not given
  DNA Pol: 104
DRC-1, concentration 2.5
  % inhibition Apo pol 10': 39.849%
  % inhibition Apol 90': 3.442%
DRC-1, concentration 5
  % inhibition Apo pol 10': 54.1804%
  % inhibition Apol 90': 17.2714%
DRC-1, concentration 10
  % inhibition Apo pol 10': 77.8206%
  % inhibition Apol 90': 53.7945%
DRC-1, concentration 20
  % inhibition Apo pol 10': 94.0018%
  % inhibition Apol 90': 88.3864%
DRC-1, concentration 40
  % inhibition Apo pol 10': 97.9008%
  % inhibition Apol 90': 97.5%
DRC-1, concentration 80
  % inhibition Apo pol 10': 96.5672%
  % inhibition Apol 90': 97.5161%
DRC-1, 180', concentration 2.5
  % inhibition apPOL 180': -2.063%
DRC-1, 180', concentration 5
  % inhibition apPOL 180': 5.595%
DRC-1, 180', concentration 10
  % inhibition apPOL 180': 40.8592%
DRC-1, 180', concentration 20
  % inhibition apPOL 180': 84.7929%
DRC-1, 180', concentration 40
  % inhibition apPOL 180': 96.7618%
DRC-1, 180', concentration 80
  % inhibition apPOL 180': 97.7754%
DRC-2, 5', concentration 20 (unit not given)
  % inhibition Apo pol 5': 56%
DRC-2, 40', concentration 40 (unit not given)
  % inhibition Apol 40': 76%
DRC-2, 40', concentration 80 (unit not given)
  % inhibition Apol 40': 76%
DRC-2, 180', concentration 40 (unit not given)
  % inhibition apPOL 180': 83%
DRC-2, 180', concentration 80 (unit not given)
  % inhibition apPOL 180': 83%
DRC-2, 5', concentration 2.5
  % inhibition Apo pol 5': 21%
DRC-2, 5', concentration 5
  % inhibition Apo pol 5': 28%
DRC-2, 5', concentration 10
  % inhibition Apo pol 5': 47%
DRC-2, 5', concentration 20
  % inhibition Apo pol 5': 56%
DRC-2, 5', concentration 40
  % inhibition Apo pol 5': 58%
DRC-2, 5', concentration 80
  % inhibition Apo pol 5': 56%
DRC-2, 5', concentration 80 (unit not given)
  % inhibition Apo pol 5': 56%
DRC-2, 40', concentration 2.5
  % inhibition Apol 40': -0.192%
DRC-2, 40', concentration 5
  % inhibition Apol 40': 15%
DRC-2, 40', concentration 10
  % inhibition Apol 40': 49%
DRC-2, 40', concentration 20
  % inhibition Apol 40': 71%
DRC-2, 40', concentration 40
  % inhibition Apol 40': 76%
DRC-2, 40', concentration 80
  % inhibition Apol 40': 76%
DRC-2, concentration 2.5
  % inhibition ApPOL 90': -4%
DRC-2, concentration 5
  % inhibition ApPOL 90': 8%
DRC-2, concentration 10
  % inhibition ApPOL 90': 46%
DRC-2, concentration 20
  % inhibition ApPOL 90': 74%
DRC-2, concentration 40
  % inhibition ApPOL 90': 81%
DRC-2, concentration 80
  % inhibition ApPOL 90': 80%
DRC-2, 180', concentration 2.5
  % inhibition apPOL 180': 1.56%
DRC-2, 180', concentration 5
  % inhibition apPOL 180': 9%
DRC-2, 180', concentration 10
  % inhibition apPOL 180': 41%
DRC-2, 180', concentration 20
  % inhibition apPOL 180': 75%
DRC-2, 180', concentration 40
  % inhibition apPOL 180': 83%
DRC-2, 180', concentration 80
  % inhibition apPOL 180': 83%
Primary screen value of the library well, unit not given
  DNA Pol: 104

## COc1ccc(/C=C/c2cc(C(=O)O)c3ccccc3n2)cc1 [Molecule 5]
  IC50: 3.86 µM

## Cc1ccc(NC(=O)C2CCN(C(=O)c3cc4ccsc4[nH]3)CC2)c(Br)c1 [Molecule 14]
  IC50: 6.6 µM

## COc1ccc(C2CC(c3ccc(Cl)cc3Cl)Nc3nc(N)nn32)cc1OC (stereo not drawn) [Molecule 43]
  IC50: 11.7 µM

## COc1ccccc1CCC(=O)N1CCc2c(nc3cc(-c4ccccc4)[nH]n3c2=O)C1 [Molecule 7]
  IC50: 7.2 µM

## O=C1NN(c2ccc(Cl)c(Cl)c2)C(=O)/C1=C/c1ccc(-c2ccc3c(c2)C(=O)OC3)o1 [Molecule 90, O=C1NN(C(=O)/C/1=C/c1ccc(o1)c1ccc2c(c1)C(=O)OC2)c1ccc(c(c1)Cl)Cl]
[1]
  DNA Pol: 51
DRC-1, conc 2.5
  % inhibition Apo pol 10': 36.4105%
  % inhibition Apol 90': 24.0232%
DRC-1, conc 5
  % inhibition Apo pol 10': 68.8597%
  % inhibition Apol 90': 57.3373%
DRC-1, conc 10
  % inhibition Apo pol 10': 88.9603%
  % inhibition Apol 90': 84.2476%
DRC-1, conc 20
  % inhibition Apo pol 10': 93.857%
  % inhibition Apol 90': 92.6423%
DRC-1, conc 40
  % inhibition Apo pol 10': 90.5867%
  % inhibition Apol 90': 85.5188%
DRC-1, conc 80
  % inhibition Apo pol 10': 96.7456%
  % inhibition Apol 90': 95.1265%
DRC-1, 180', conc 2.5
  % inhibition apPOL 180': 13.8146%
DRC-1, 180', conc 5
  % inhibition apPOL 180': 43.9311%
DRC-1, 180', conc 10
  % inhibition apPOL 180': 78.9656%
DRC-1, 180', conc 20
  % inhibition apPOL 180': 91.6394%
DRC-1, 180', conc 40
  % inhibition apPOL 180': 79.8129%
DRC-1, 180', conc 80
  % inhibition apPOL 180': 94.9011%
DRC-2, 5', conc 2.5
  % inhibition Apo pol 5': 31%
DRC-2, 5', conc 5
  % inhibition Apo pol 5': 10%
DRC-2, 5', conc 10
  % inhibition Apo pol 5': 34%
DRC-2, 5', conc 20
  % inhibition Apo pol 5': 38%
DRC-2, 5', conc 40
  % inhibition Apo pol 5': 61%
DRC-2, 5', conc 80
  % inhibition Apo pol 5': 63%
DRC-2, 5', concentration 5
  % inhibition Apo pol 5': 10%
DRC-2, 5', concentration 10
  % inhibition Apo pol 5': 34%
DRC-2, 5', concentration 80
  % inhibition Apo pol 5': 63%
DRC-2, 40', conc 2.5
  % inhibition Apol 40': 33%
DRC-2, 40', conc 5
  % inhibition Apol 40': 10%
DRC-2, 40', conc 10
  % inhibition Apol 40': 37%
DRC-2, 40', conc 20
  % inhibition Apol 40': 42%
DRC-2, 40', conc 40
  % inhibition Apol 40': 68%
DRC-2, 40', conc 80
  % inhibition Apol 40': 79%
DRC-2, 40', concentration 5
  % inhibition Apol 40': 10%
DRC-2, conc 2.5
  % inhibition ApPOL 90': 30%
DRC-2, conc 5
  % inhibition ApPOL 90': 9%
DRC-2, conc 10
  % inhibition ApPOL 90': 35%
DRC-2, conc 20
  % inhibition ApPOL 90': 40%
DRC-2, conc 40
  % inhibition ApPOL 90': 67%
DRC-2, conc 80
  % inhibition ApPOL 90': 82%
DRC-2, 180', conc 2.5
  % inhibition apPOL 180': 24%
DRC-2, 180', conc 5
  % inhibition apPOL 180': 6%
DRC-2, 180', conc 10
  % inhibition apPOL 180': 29%
DRC-2, 180', conc 20
  % inhibition apPOL 180': 34%
DRC-2, 180', conc 40
  % inhibition apPOL 180': 63%
DRC-2, 180', conc 80
  % inhibition apPOL 180': 83%
DRC-2, 180', concentration 20
  % inhibition apPOL 180': 34%
DRC-2, 180', concentration 40
  % inhibition apPOL 180': 63%
[2]
  DNA Pol: 51

## Cc1ccc(N2NC(=O)/C(=C\c3ccc(O)c([N+](=O)[O-])c3)C2=O)cc1Cl [KU0058427]
[1]
  DNA Pol: 41
DRC-1, conc 2.5
  % inhibition Apo pol 10': 22.1005%
  % inhibition Apol 90': 11.8681%
DRC-1, conc 5
  % inhibition Apo pol 10': 22.1201%
  % inhibition Apol 90': 11.4719%
DRC-1, conc 10
  % inhibition Apo pol 10': 57.6403%
  % inhibition Apol 90': 38.0061%
DRC-1, conc 20
  % inhibition Apo pol 10': 74.2262%
  % inhibition Apol 90': 55.0808%
DRC-1, conc 40
  % inhibition Apo pol 10': 90.9483%
  % inhibition Apol 90': 83.5201%
DRC-1, conc 80
  % inhibition Apo pol 10': 95.3494%
  % inhibition Apol 90': 94.8173%
DRC-1, 180', conc 2.5
  % inhibition apPOL 180': 4.9901%
DRC-1, 180', conc 5
  % inhibition apPOL 180': 2.877%
DRC-1, 180', conc 10
  % inhibition apPOL 180': 25.4818%
DRC-1, 180', conc 20
  % inhibition apPOL 180': 38.9214%
DRC-1, 180', conc 40
  % inhibition apPOL 180': 73.2638%
DRC-1, 180', conc 80
  % inhibition apPOL 180': 93.9984%
DRC-2, 5', conc 2.5
  % inhibition Apo pol 5': 11%
DRC-2, 5', conc 5
  % inhibition Apo pol 5': 21%
DRC-2, 5', conc 10
  % inhibition Apo pol 5': 35%
DRC-2, 5', conc 20
  % inhibition Apo pol 5': 44%
DRC-2, 5', conc 40
  % inhibition Apo pol 5': 54%
DRC-2, 5', conc 80
  % inhibition Apo pol 5': 56%
DRC-2, 5', concentration 2.5
  % inhibition Apo pol 5': 11%
DRC-2, 5', concentration 20
  % inhibition Apo pol 5': 44%
DRC-2, 40', conc 2.5
  % inhibition Apol 40': 11%
DRC-2, 40', conc 5
  % inhibition Apol 40': 20%
DRC-2, 40', conc 10
  % inhibition Apol 40': 34%
DRC-2, 40', conc 20
  % inhibition Apol 40': 46%
DRC-2, 40', conc 40
  % inhibition Apol 40': 64%
DRC-2, 40', conc 80
  % inhibition Apol 40': 74%
DRC-2, 40', concentration 2.5
  % inhibition Apol 40': 11%
DRC-2, 40', concentration 5
  % inhibition Apol 40': 20%
DRC-2, conc 2.5
  % inhibition ApPOL 90': 9%
DRC-2, conc 5
  % inhibition ApPOL 90': 19%
DRC-2, conc 10
  % inhibition ApPOL 90': 28%
DRC-2, conc 20
  % inhibition ApPOL 90': 44%
DRC-2, conc 40
  % inhibition ApPOL 90': 65%
DRC-2, conc 80
  % inhibition ApPOL 90': 78%
DRC-2, concentration 2.5
  % inhibition ApPOL 90': 9%
DRC-2, concentration 20
  % inhibition ApPOL 90': 44%
DRC-2, 180', conc 2.5
  % inhibition apPOL 180': 2.37%
DRC-2, 180', conc 5
  % inhibition apPOL 180': 9%
DRC-2, 180', conc 10
  % inhibition apPOL 180': 20%
DRC-2, 180', conc 20
  % inhibition apPOL 180': 33%
DRC-2, 180', conc 40
  % inhibition apPOL 180': 57%
DRC-2, 180', conc 80
  % inhibition apPOL 180': 80%
DRC-2, 180', concentration 5
  % inhibition apPOL 180': 9%
DRC-2, 180', concentration 10
  % inhibition apPOL 180': 20%
[2]
  DNA Pol: 41

## O=C(c1ccccc1)N1CCc2c(nc3cc(-c4ccccc4)[nH]n3c2=O)C1 [Molecule 30]
  IC50: 9.54 µM

## CC(NC(=O)Cc1cc(=O)[nH]c(SCc2cccc(Cl)c2)n1)c1ccccc1 (stereo not drawn) [Molecule 67]
  IC50: 23.3 µM

## COc1cccc(Oc2c(C(F)(F)F)oc3cc(OC(=O)N(C)C)ccc3c2=O)c1 [Molecule 52]
  IC50: 40.6 µM
